ChEMBL document CHEMBL1201862, “PubChem BioAssay data set” (2004)
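These data come from cells grown in 96-well plates and exposed to compound for 48 hours at five concentrations. GI50 is the concentration that inhibits growth by half.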 Calls of active or inactive are those of the source. No stated cut-off is given here; in the data, active = GI50 up to about 1.1 µM and inactive = higher.

Key:
Test in all cases: NCI tumour cell line growth inhibition, 48 h
A549 = test system: A549
CAKI-1 = test system: CAKI-1
COLO 205 = test system: COLO 205
HCC 2998 = test system: HCC 2998
HCT-15 = test system: HCT-15
LOX IMVI = test system: LOX IMVI
M19-MEL = test system: M19-MEL
MCF7 = test system: MCF7
MDA-MB-231 = test system: MDA-MB-231
NCI-H23 = test system: NCI-H23
OVCAR-3 = test system: OVCAR-3
PC-3 = test system: PC-3
RPMI-8226 = test system: RPMI-8226
SF-268 = test system: SF-268
SK-MEL-28 = test system: SK-MEL-28
SK-MEL-2 = test system: SK-MEL-2
SK-MEL-5 = test system: SK-MEL-5
T47D = test system: T47D
U-251 = test system: U-251
UACC-62 = test system: UACC-62

| SMILES | GI50 (A549) | GI50 (CAKI-1) | GI50 (COLO 205) | GI50 (HCC 2998) | GI50 (HCT-15) [nM] | GI50 (LOX IMVI) | GI50 (M19-MEL) | GI50 (MCF7) | GI50 (MDA-MB-231) | GI50 (NCI-H23) | GI50 (OVCAR-3) | GI50 (PC-3) | GI50 (RPMI-8226) | GI50 (SF-268) | GI50 (SK-MEL-28) | GI50 (SK-MEL-2) | GI50 (SK-MEL-5) | GI50 (T47D) | GI50 (U-251) | GI50 (UACC-62) |
| --- | --- | --- | --- | --- | --- | --- | --- | --- | --- | --- | --- | --- | --- | --- | --- | --- | --- | --- | --- | --- |
| O=[N+]([O-])c1ccc(C2=Nn3c(nnc3-c3ccc(Cl)cc3)SC2)o1 | 14.3 µM (inactive) | 9.2 µM (inactive) | 2.05 µM (inactive) | 2.39 µM (inactive) | 2330 | 3.93 µM (inactive) | 2.78 µM (inactive) | 1880 nM (inactive) | 3240 nM (inactive) | 7.94 µM (inactive) | 3.98 µM (inactive) | 5320 nM (inactive) | 2.1 µM (inactive) | 10.8 µM (inactive) | 12.2 µM (inactive) | 10.5 µM (inactive) | 10.8 µM (inactive) | 5.45 µM (inactive) | 14.1 µM (inactive) | 11.1 µM (inactive) |
| [O-][Cl+3]([O-])([O-])[O-].c1ccc(-c2[o+]c(-c3ccccc3)c(-c3ccccc3)c(-c3ccccc3)c2-c2ccccc2)cc1 | > 100 µM (inactive) | > 100 µM (inactive) | > 100 µM (inactive) | > 100 µM (inactive) | > 100000 | > 100 µM (inactive) | > 100 µM (inactive) | – | – | > 100 µM (inactive) | > 100 µM (inactive) | – | 24.9 µM (inactive) | > 100 µM (inactive) | > 100 µM (inactive) | > 100 µM (inactive) | > 100 µM (inactive) | – | > 100 µM (inactive) | > 100 µM (inactive) |
| CC/C(CC(=O)CCC(=O)Nc1ccccc1[N+](=O)[O-])=N/NC(=O)C[n+]1ccccc1 | > 100 µM (inactive) | > 100 µM (inactive) | > 100 µM (inactive) | > 100 µM (inactive) | > 100000 | > 100 µM (inactive) | > 100 µM (inactive) | – | – | > 100 µM (inactive) | > 100 µM (inactive) | – | > 100 µM (inactive) | > 100 µM (inactive) | > 100 µM (inactive) | > 100 µM (inactive) | > 100 µM (inactive) | – | > 100 µM (inactive) | > 100 µM (inactive) |
| NC(=S)N/N=C/c1nccc2ccccc12 | 0.409 µM (active) | 0.738 µM (active) | 0.957 µM (active) | 0.664 µM (active) | 975 | 0.322 µM (active) | 0.918 µM (active) | – | – | 0.459 µM (active) | 0.307 µM (active) | – | 1.22 µM (inactive) | 0.377 µM (active) | 2.37 µM (inactive) | 2.7 µM (inactive) | 0.467 µM (active) | – | 0.296 µM (active) | 0.281 µM (active) |
| CC(C)(c1ccc(Oc2ccc(C#N)c(C#N)c2)cc1)c1ccc(Oc2ccc(C#N)c(C#N)c2)cc1 | > 10 µM (inactive) | > 10 µM (inactive) | > 10 µM (inactive) | > 10 µM (inactive) | > 10000 | > 10 µM (inactive) | > 10 µM (inactive) | – | – | > 10 µM (inactive) | > 10 µM (inactive) | – | > 10 µM (inactive) | > 10 µM (inactive) | > 10 µM (inactive) | > 10 µM (inactive) | > 10 µM (inactive) | – | > 10 µM (inactive) | > 10 µM (inactive) |
| C/C(=N\NC(N)=S)c1ccc(C)c(C)c1 | 65.8 µM (inactive) | 92.5 µM (inactive) | 26.9 µM (inactive) | 51.6 µM (inactive) | 58500 | > 100 µM (inactive) | 35.7 µM (inactive) | – | – | 85.7 µM (inactive) | 22.8 µM (inactive) | – | 34.5 µM (inactive) | > 100 µM (inactive) | > 100 µM (inactive) | 45 µM (inactive) | 69.2 µM (inactive) | – | 88.9 µM (inactive) | 28.4 µM (inactive) |
| CC(C)N(C(=O)C12CC3CC(CC(C3)C1)C2)C(C)C | > 50 µM (inactive) | > 50 µM (inactive) | > 50 µM (inactive) | > 50 µM (inactive) | > 50000 | > 50 µM (inactive) | > 50 µM (inactive) | – | – | > 50 µM (inactive) | > 50 µM (inactive) | – | > 50 µM (inactive) | > 50 µM (inactive) | > 50 µM (inactive) | > 50 µM (inactive) | > 50 µM (inactive) | – | > 50 µM (inactive) | > 50 µM (inactive) |
| CN(C)C(=S)/N=c1\ssc(=S)n1Cc1ccccc1 | 0.78 µM (active) | 0.676 µM (active) | 0.288 µM (active) | 0.57 µM (active) | 237 | 0.455 µM (active) | 0.318 µM (active) | 820 nM (active) | 631 nM (active) | 0.465 µM (active) | 0.168 µM (active) | 249 nM (active) | 0.785 µM (active) | 1.82 µM (inactive) | 0.661 µM (active) | 0.365 µM (active) | 0.217 µM (active) | 6.31 µM (inactive) | 0.419 µM (active) | 0.312 µM (active) |
| CC1(C)CC(/C=C2/OC(=O)c3ccccc32)=C(C#N)C(=O)O1 | > 100 µM (inactive) | > 100 µM (inactive) | > 100 µM (inactive) | 0.294 µM (active) | > 100000 | > 100 µM (inactive) | > 100 µM (inactive) | – | – | > 100 µM (inactive) | > 100 µM (inactive) | – | > 100 µM (inactive) | > 100 µM (inactive) | > 100 µM (inactive) | > 100 µM (inactive) | > 100 µM (inactive) | – | > 100 µM (inactive) | > 100 µM (inactive) |
| COc1ccc2nc3ccccc3c(NCCCCCCN(CCCl)CCCl)c2c1 | 0.054 µM (active) | 0.0353 µM (active) | 0.014 µM (active) | 0.226 µM (active) | 57.7 | 0.0199 µM (active) | 0.132 µM (active) | 10 nM (active) | 486 nM (active) | 0.15 µM (active) | 0.0627 µM (active) | 51.4 nM (active) | 0.0122 µM (active) | 0.0649 µM (active) | 1.06 µM (active) | 0.297 µM (active) | 0.304 µM (active) | – | 0.0528 µM (active) | 0.0628 µM (active) |
